The values that follow come from US10450572B2, “Androgen receptor variant inhibitors and methods of using” (Regents of the University of Minnesota, priority 2016, dated 2019).

“Also recorded” adds a separate entry of the source. {Fluorescein} = fluorescein label

For data set [1], the system named is AR-V2, AR-V5, AR-V7, and AR-V9 mRNA. In words: AR-V mRNA expression in E43 cells. It is filed as cell-based. To be noted: E43 cells transfected with CE3 pAM; FIG. 3B. The method, then: (§1) E43 cells were cultured in RPMI-1640 and supplemented with 10% FBS and 500 μg/mL penicillin/streptomycin. For androgen blockade experiments, E43 cells were cultured in RPMI-1640 supplemented with 10% charcoal stripped FBS and 500 μg/mL penicillin/streptomycin. Transient transfections were performed using a BTX Square Wave electroporator. Transient transfection of E43 cells with the indicated concentration of CE3 pAM were carried out in RPMI-1640 supplemented with 10% FBS, and subsequently plated in appropriate culture medium. When appropriate, E43 cells were treated with 10 μM enzalutamide (MDV-3100, Selleck Chemicals) in indicated cell culture medium. E43 cells in cell culture medium were treated with vivo-CE3 pAM in 1X phosphate buffered saline at the indicated concentrations.

In data set [2] the test system is AR-V proteins. Description: AR-V protein expression in E43 cells (western blot). Type of data set: cell-based. To be noted: E43 cells transfected with CE3 pAM; FIG. 3A. As to the method: as §1
Data set [3] deals with AR mRNA. In words: specificity test with morpholinos tiling the CE3 PAS: AR mRNA. To be noted: 22Rv1 cells; 10 μM morpholino, 24 hours after transfection; FIG. 19B. It is filed as cell-based, human. The method, then:
(§2) GeneTools' design tool was used to design morpholinos targeting upstream and downstream regions of AR CE3. Sequences were as follows:
(§3) 22Rv1 cells were transfected with 10 μM control and morpholinos tiling upstream (us) and downstream (ds) of the CE3 PAS (us 100, us 50, CE3 pAM, ds 50, ds 150).
(§4) Total RNA from tumor tissue was purified using the Promega Reliaprep Tissue kit according to manufacturer instructions, including the on-column DNAse treatment. RNA was eluted in nuclease free water. Reverse transcription and quantitative PCR were performed as described in Example 2. Data were analyzed using the ΔΔCt method and normalized to actin-2 (internal control).

For data set [4], the system named is AR-V7, AR-V9 (EX3:CE5), AR-V1 (EX3:CE1), AR-V6 (EX3:CE2a). Description: AR-V mRNA and protein expression after morpholino transfection (RT-qPCR, western blot). It is filed as cell-based, human. To be noted: FIG. 11C. The method, then:
(§5) 22Rv1 cells (CRL-2505) were obtained from ATCC (Manassas, Va., USA) and cultured according to ATCC protocol. LNCaP95 cells were cultured in phenol red free RMPI 1640 (Invitrogen) supplemented with 10% fetal bovine serum and 1× penicillin/streptomycin. VCaP cells (ATCC CRL-2876) were cultured in DMEM medium (Invitrogen) supplemented with 10% fetal bovine serum and 1× penicillin/streptomycin. ATCC authenticates human cell lines using short tandem repeat analysis. Cell lines were routinely monitored for mycoplasma infection by regularly evaluating aliquots of supernatants from cells in culture for mycoplasma contamination using a PCR-based method as described elsewhere (see, e.g., Uphoff et al., 2012, J. Biomed. Biotechnol., 2012:267678). […]
(§6) RNA was isolated from cells using the Reliaprep RNA Miniprep System (Promega) and purified according to kit manufacturer instructions, including a 30-minute room temperature DNase treatment. […] RNA concentration and integrity were assessed by denaturing gel electrophoresis or by spectrophotometry with a NanoDrop 2000 (ThermoFisher). […]
(§7) Quantitative PCR was performed using Quanta PerfeCTa master mix, 200 nM forward and reverse primers, and 2 μL input cDNA (serially diluted in nuclease free water 1:50 for 18S samples) in 20 μL reactions. […] Cycle thresholds (Ct) were determined using the Biorad CFX manager software. […]

Data set [5] relates to full-length AR (AR-FL). Description: full-length AR expression in E43 cells. It is filed as cell-based. As to conditions: E43 cells transfected with CE3 pAM; FIG. 3A. As to the method:
as §1

Data set [6] relates to AR-V7 mRNA. In words: specificity test with morpholinos tiling the CE3 PAS: AR-V7 mRNA. Type of data set: cell-based, human. To be noted: 22Rv1 cells; 10 μM morpholino, 24 hours after transfection; FIG. 19B. As to the method:
as §2, §3, §4

In data set [7] the test system is AR-FL. In words: AR-FL expression after morpholino transfection. Type of data set: cell-based, human. As to conditions: FIG. 11C. As to the method: as §5, §6, §7
Data set [8] deals with E43 cells. Description: crystal violet growth assay of E43 cells. It is filed as cell-based. As to conditions: FIG. 3C; for cell growth (crystal violet staining): E43 cells. The method, then:
as §1
20,000 E43 cells transfected with 10 μM CE3 pAM or control morpholino were plated in 24-well dishes in the indicated culture medium and subjected to the indicated drug treatments. Crystal violet assays were performed on cells on days 2, 4, 6, 8, 11, and 14. Briefly, cells were fixed in 1% glutaraldehyde in 1X PBS and stained with 0.5% crystal violet in distilled water. At the end of the timecourse, fixed and stained cells were subjected to treatment with Sorenson's buffer (6.1 ml of 0.1 M disodium citrate, 3.9 ml of 0.1N HCl, and 10 ml of 95% ethanol) to release dye. Absorbance was measured at 560 nm.

For data set [9], the system named is 22Rv1 cells. Description: crystal violet growth assay of 22Rv1 cells. Type of data set: cell-based, human. As to conditions: parental 22Rv1 cells transfected with 10 μM; androgen-deplete conditions; FIG. 11D. The method, then:
(§8) 22Rv1 cells (CRL-2505) were obtained from ATCC (Manassas, Va., USA) and cultured according to ATCC protocol. LNCaP95 cells were cultured in phenol red free RMPI 1640 (Invitrogen) supplemented with 10% fetal bovine serum and 1× penicillin/streptomycin. VCaP cells (ATCC CRL-2876) were cultured in DMEM medium (Invitrogen) supplemented with 10% fetal bovine serum and 1× penicillin/streptomycin. ATCC authenticates human cell lines using short tandem repeat analysis. Cell lines were routinely monitored for mycoplasma infection by regularly evaluating aliquots of supernatants from cells in culture for mycoplasma contamination using a PCR-based method as described elsewhere (see, e.g., Uphoff et al., 2012, J. Biomed. Biotechnol., 2012:267678).
GeneTools' design tool was used to design a 25-mer consisting of the sequence 5′-[…]-3′ (SEQ ID NO:2) targeted to the CE3 PAS (CE3 pAM). As a control, a standard commercially available nontargeting control morpholino was used (GeneTools). […]
(§9) Electroporated 22Rv1 cells and sublines were seeded at 20,000 cells per well in 24 well dishes in RPMI 1640 supplemented with 10% charcoal-stripped FBS. […] Crystal violet staining assays were performed as described elsewhere (see, e.g., Li et al., 2013, Cancer Res., 73:483-9) and absorbance was measured at 560 nm. Significance was assessed by two tailed t-tests in GraphPad.

Data set [10] deals with 22Rv1-undup3 cells. In words: crystal violet growth assay of 22Rv1-undup3 cells. Type of data set: cell-based, human. As to conditions: 22Rv1-undup3 cells transfected with 10 μM, FIG. 11D. As to the method:
as §8
Cell/siRNA mixtures were electroporated in a 4-mm gap-width cuvette (BTX) with a BTX Square Wave Electroporator (22Rv1 and sublines: 350 V, 10 ms pulse, LNCaP95: 305 V, 10 ms pulse). Following a 15-minute recovery, cells were seeded in appropriate culture medium. […]
as §9

In data set [11] the test system is AR-FL. Description: AR subcellular fractionation and western blot. To be noted: 22Rv1-undup3 cells; 1 nM, 24 hours; FIG. 8. Type of data set: cell-based, human. The method, then:
For AR subcellular fractionation, 22Rv1-undup3 cells were seeded in RPMI medium supplemented with 10% CSS for 24 hours and treated with either ethanol (vehicle) or 1 nM mibolerone (synthetic androgen) for 24 hours. Cells were washed with 1×PBS, harvested in hypotonic buffer, and subjected to subcellular fractionation as described elsewhere (see, e.g., Chan et al., 2012, J. Biol. Chem., 287:19736-49). Lysates in 1× Laemmli buffer were loaded in equal volumes on either 7.5% or 4-15% polyacrylamide gels (Biorad TGX) and electrophoresed at 200v for 30 minutes.
Blots were incubated with antibodies specific to CPSF1 (Bethyl, A301-580, 1:1000), AR (Santa Cruz Santa Cruz Biotechnology N-20, 1:2000), extracellular signal-regulated kinase-2 (ERK-2; Santa Cruz Biotechnology D-2, 1:4000), and AR-V7 (Precision Antibodies, 1:1000). HRP-conjugated goat-anti-mouse (#sc 2005, lot#D1515), and goat-anti-rabbit (#sc 2004, lot#B1315) secondary antibodies were obtained from Santa Cruz and were used at 1:10000 dilutions. Blots were incubated in enhanced chemiluminescence substrate (WesternBright, Advansta #K12045-D50 or SuperSignal West Pico, Thermo #1859674) and exposed to X-ray film for chemiluminescence detection.

Setting [12] is: 22Rv1-undup3 cells transfected with 10 μM.
[13] abbreviates: 22Rv1 cells transfected with 10 μM.

In the case of “CE3 pAM: 25-mer morpholino 5′-GTGTATTAATGGCTTTATTAAGGGA-3′ (SEQ ID NO:2) designed to block the AR CE3 poly A signal (all phosphorodiamidate morpholino (PMO), 3' {Fluorescein}; further chemistry not fully specified)”, in data set [1], the “expression of AR-V2, AR-V5, AR-V7, and AR-V9 mRNA” value is reported as “blocks; also recorded: blocked expression”. In addition, the “expression of AR-V proteins” value in data set [2] was “blocks; also recorded: dramatically reduced”. For the same molecule, in [3], the “AR mRNA levels” value is “increased”. The “mRNA and protein expression of AR-V7, AR-V9, AR-V1, AR-V6” value in data set [4] (setting [12]) and in data set [4] (setting [13]) was “reduction” in each case. In [5], the “expression of full-length AR (AR-FL)” value is recorded as “increase expression”. Moreover, the “AR-V7 mRNA levels” value in data set [6] is listed as “reduced”. For the same molecule, the “expression of AR-FL” value in data set [7] (setting [12]) and in data set [7] (setting [13]) was “increase” in each case. The “reduction in cell growth assessed by crystal violet staining” value in data set [8] (E43 cells transfected, charcoal stripped serum, plus 10 uM enzalutamide) is around 50%. The “cell growth (crystal violet staining)” value is on record as “blocks growth; also recorded: inhibited cell growth” in data set [8] (10 μM morpholino transfected, maximum androgen blockade castration+enzalutamide) and “not under androgenic conditions” in data set [8] (transfected, androgenic conditions). Moreover, the entries for the “growth (crystal violet)” value in data set [9], in data set [10] (androgen-deplete conditions) and in [10] (androgen-replete conditions (1 nM DHT)) were “reduction in growth”, “reduction in growth” and “inhibited growth”, respectively.

On to `C[C@@H]1CC2=CC(=O)CC[C@@H]2[C@H]2CC[C@@]3(C)[C@@H](CC[C@]3(C)O)[C@@H]21` [mibolerone], for which the “nuclear localization of AR-FL” value in data set [11] is given as “strong nuclear localization; also recorded: localizes to the nucleus”.
